Measurements taken from the CATMoS acute toxicity set (Mansouri et al. 2021).
Values joined by “and” are separate entries in the source; they are usually repeats but may differ in a detail not shown here. Equal entries are not always repeated.

assay: rat acute oral toxicity; settings: in vivo
Source text: […]The data set underlying the modeling effort for this project was initially compiled by NICEATM and U.S. EPA’s CCTE. Briefly, LD50 data were collected from rat acute oral systemic toxicity tests, including limit tests, ranges/confidence intervals, and discrete LD50 values. The full data set included 21,200 LD50 entries for 15,688 substances. […] Data were reviewed to ensure that LD50 values with obvious errors in the extracted data such as unit conversion errors (e.g., comma and decimal separator misplacements) were either fixed or removed. After this review, 16,209 LD50 values remained. Many of the chemicals represented had multiple LD50 entries, requiring that a single representative value per Chemical Abstracts Service Registry Number (CASRN) identifier be defined to facilitate modeling efforts. Based on ATWG feedback and to define the representative LD50 as a protective value while accounting for the distribution across multiple LD50s, the median of the lowest quartile was computed using only discrete LD50 values (omitting limit test data and range and confidence interval data). A detailed summary of the data compilation is available online on the NICEATM webpage dedicated to the collaborative modeling project (NTP 2020).
[…][…] For categorical designations, limit test and range/confidence interval LD50 data were integrated wherever possible. As such, the number of chemicals with end point values/calls varies across the modeling end points (Table 3) based on whether chemicals had representative LD50 values and/or other data. If a chemical had both, the representative value was used to determine categorical calls rather than limit test data. Some data were useable only for certain end points and categories depending on the thresholds. For example, ranges that spanned multiple hazard categories were considered only for the binary (very toxic/nontoxic) end points and omitted from rendering a determination for hazard category assignment.
[…]The final data set comprising 11,992 chemicals was split into training and evaluation sets […], respectively. This process was performed semirandomly by ordering chemicals based on the five end points (categorical and continuous LD50 values) and partitioning every fourth record into the evaluation set accordingly. This approach was taken to ensure an equivalent distribution of the LD50 values and the different hazard categories between the training and the evaluation sets without supervised sampling of the chemicals based on structures (Figure 1A). The sources of the chemical structures were also kept equivalent between the two sets, with chemical structures obtained from DSSTox, being the highest quality, representing over 75% of each set (Figure 1B).

Row | SMILES | LD50
1 | CC(C)(C)OOC(=O)c1ccccc1 | 1010 mg/kg
2 | NNc1nncc2ccccc12 | 173 mg/kg
3 | CC(C)OC(=O)Nc1cccc(Cl)c1 | 1200 mg/kg
4 | CC(C)(C)c1ccc(C(O)CCCN2CCC(C(O)(c3ccccc3)c3ccccc3)CC2)cc1 (stereo not given) | 438 mg/kg
5 | O=C(O)CC(O)C(=O)O (stereo not given) | 9300 mg/kg and 3200 mg/kg
6 | CCO | 7230 mg/kg
7 | CCCCSP(=O)(SCCCC)SCCCC | 150 mg/kg
8 | C=C(C)C(=O)OCCN=C=O | 670 mg/kg
9 | CC(=O)Oc1ccccc1C(=O)O | 1280 mg/kg
10 | CCCCOP(=O)(OCCCC)Oc1ccccc1 | 2140 mg/kg
11 | O=C(Nc1ccccc1)Nc1ccnc(Cl)c1 | 4900 mg/kg
12 | CN(C)c1nc(=O)n(C2CCCCC2)c(=O)n1C | 1200 mg/kg
13 | Cc1ccc(N)cc1N | 73 mg/kg
14 | COCCOC(C)=O | 1250 mg/kg
15 | CCCCOC(=O)c1ccccc1C(=O)OCCCC | 6300 mg/kg
16 | C[N+](C)(C)CCO | 3400 mg/kg
17 | CC(COC(=O)c1ccccc1)OC(=O)c1ccccc1 (stereo not given) | 2660 mg/kg
18 | N#CO | 567 mg/kg and 582 mg/kg
19 | CCC(C)n1c(=O)[nH]c(C)c(Br)c1=O (stereo not given) | 641 mg/kg
20 | OCCCCCCO | 3000 mg/kg
21 | C=CCBr | 120 mg/kg
22 | CCC(C)Nc1c([N+](=O)[O-])cc(C(C)(C)C)cc1[N+](=O)[O-] (stereo not given) | 1050 mg/kg
23 | COC(=O)CCS | 182 mg/kg
24 | CC(=O)OO | 39.9 mg/kg

Row | SMILES | LD50
25 | CC1=C(C(=O)Nc2ccccc2)S(=O)(=O)CCO1 | 1630 mg/kg
26 | CNC(=O)CC#N | 387 mg/kg
27 | Cc1cccc(N)c1C | 930 mg/kg
28 | CCCSP(=O)(OCC)Oc1ccc(Br)cc1Cl (stereo not given) | 358 mg/kg
29 | Cc1c(Cl)cccc1[N+](=O)[O-] | 2320 mg/kg
30 | CC(C)C(=O)c1ccccc1 | 1950 mg/kg
31 | CC(CCl)OP(=O)(OC(C)CCl)OC(C)CCl (stereo not given) | 980 mg/kg
32 | COP(=S)(OC)Oc1ccc(S(=O)(=O)N(C)C)cc1 | 28 mg/kg
33 | ClCC1CO1 (stereo not given) | 65 mg/kg
34 | CC(C)c1cccc(C(C)C)c1N=C=Nc1c(C(C)C)cccc1C(C)C | 200 mg/kg
35 | COCCOCCO | 5500 mg/kg
36 | CC(C)CCCCCCCO | 6400 mg/kg
37 | CCOP(=O)(OCC)OCC | 1160 mg/kg
38 | COc1ccccc1[N+](=O)[O-] | 740 mg/kg
39 | CCCNC(=O)NS(=O)(=O)c1ccc(Cl)cc1 | 2150 mg/kg
40 | CCN | 400 mg/kg
41 | COc1ccc(Cc2nccc3cc(OC)c(OC)cc23)cc1OC | 325 mg/kg
42 | Cc1ccc(N)c(C)c1 | 467 mg/kg
43 | CNC(=S)NN | 14 mg/kg
44 | O=C(O)c1ccccc1C(=O)Nc1cccc2ccccc12 | 1770 mg/kg
45 | C=CC1CC2C=CC1C2 (stereo not given) | 5240 mg/kg
46 | CCCCCCCO | 500 mg/kg
47 | O=[N+]([O-])OCC(CO[N+](=O)[O-])O[N+](=O)[O-] | 105 mg/kg
48 | COC(=O)c1ccccc1 | 1180 mg/kg

Row | SMILES | LD50
49 | ClC1=C(Cl)C(Cl)(C2(Cl)C(Cl)=C(Cl)C(Cl)=C2Cl)C(Cl)=C1Cl | 1200 mg/kg
50 | CC1(C)CC(O)CC(C)(C)N1[O] | 953 mg/kg
51 | COc1ccc(C(=O)c2ccccc2)c(O)c1 | 7400 mg/kg
52 | O=S1(=O)CCCC1 | 1970 mg/kg
53 | CCOP(=O)(O)C(N)=O | 2080 mg/kg
54 | CCOC(=O)c1cn2nc(OP(=S)(OCC)OCC)cc2nc1C | 151 mg/kg
55 | CCC(C)c1cc([N+](=O)[O-])cc([N+](=O)[O-])c1OC(=O)C=C(C)C (stereo not given) | 58 mg/kg
56 | C1=CC2C3C=CC(C3)C2C1 (stereo not given) | 366 mg/kg
57 | COC(=O)CS | 84 mg/kg
58 | COP(=S)(OC)Oc1nc(Cl)c(Cl)cc1Cl | 1500 mg/kg
59 | Cc1ccc(/N=C/N(C)/C=N/c2ccc(C)cc2C)c(C)c1 | 400 mg/kg
60 | Clc1ccc(C2(Cn3cncn3)CC(Br)CO2)c(Cl)c1 (stereo not given) | 328 mg/kg
61 | O=C1C=CC(=O)O1 | 318 mg/kg
62 | CO[Si](OC)(c1ccccc1)c1ccccc1 | 2610 mg/kg
63 | CCC(C)C(C)C(C)CCc1ccc(O)cc1 (stereo not given) | 2100 mg/kg
64 | C[Si]1(CCC(F)(F)F)O[Si](C)(CCC(F)(F)F)O[Si](C)(CCC(F)(F)F)O1 (stereo not given) | 180 mg/kg
65 | N#CCO | 8 mg/kg
66 | C=CCOC(=O)C(=C)C | 70 mg/kg
67 | COc1ccc(C(=CC(=O)N2CCOCC2)c2ccc(Cl)cc2)cc1OC | 3900 mg/kg
68 | CCCCCCCC(=O)OCC(COC(=O)CCCCCCC)OC(=O)CCCCCCC | 33300 mg/kg
69 | N#CCC#N | 14 mg/kg
70 | NS(=O)(=O)Cc1noc2ccccc12 | 1990 mg/kg
71 | ClSC(Cl)(Cl)Cl | 82.6 mg/kg

assay: GHS categories as the set defines them, by LD50: 1 up to 5, 2 up to 50, 3 up to 300, 4 up to 2000, 5 above 2000 mg/kg; settings: rat; in vivo; po

Row | SMILES | GHS category
72 | CCCCCCCCCCCc1ccccc1 | 5
73 | CCCCCCCCCC(C)C=O (stereo not given) | 5
74 | C=CCNC(=O)Oc1cccc2c1OC(C)(C)O2 | 4
75 | CC(=O)OCC1=CC[C@@]23C[C@@H]1C(C)(C)[C@@H]2CC[C@H]3C | 5
